Measurements reported in ChEMBL document CHEMBL1201862, “PubChem BioAssay data set” (2004).
Several values for one entry are separate records, joined by “and”; a condition that tells them apart may be missing. Equal values may be shown once. Activity calls are given as the source filed them.

Columns and labels:
NADPH oxidase 1 = target: T1, NADPH oxidase 1 (Homo sapiens, UniProt Q9Y5S8); experiment: Late-stage luminescence-based cell-based dose response assay to identify inhibitors of NADPH oxidase 1 (NOX1): Synthesized analogs 2.; format: functional
T1 sequence (Q9Y5S8 whole entry): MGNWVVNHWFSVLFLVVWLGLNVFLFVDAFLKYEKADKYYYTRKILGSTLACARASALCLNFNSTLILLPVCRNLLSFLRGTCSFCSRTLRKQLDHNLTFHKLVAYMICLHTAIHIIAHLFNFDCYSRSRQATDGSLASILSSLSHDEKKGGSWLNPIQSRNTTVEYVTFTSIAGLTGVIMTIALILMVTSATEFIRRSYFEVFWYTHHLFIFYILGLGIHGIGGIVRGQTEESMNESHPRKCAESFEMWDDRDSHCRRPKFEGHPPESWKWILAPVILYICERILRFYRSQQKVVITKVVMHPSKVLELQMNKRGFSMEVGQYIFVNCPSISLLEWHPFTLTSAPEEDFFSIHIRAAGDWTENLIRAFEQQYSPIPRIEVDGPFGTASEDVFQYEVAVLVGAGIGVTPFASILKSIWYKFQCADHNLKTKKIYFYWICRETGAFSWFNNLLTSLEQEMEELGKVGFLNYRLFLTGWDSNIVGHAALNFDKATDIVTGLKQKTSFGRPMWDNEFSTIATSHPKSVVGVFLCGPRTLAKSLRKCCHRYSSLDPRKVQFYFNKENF

[1] = target: Muscarinic acetylcholine receptor M5 (Homo sapiens, UniProt P08912); experiment: M5 receptor positive allosteric modulators, dose response, cell-based, concentration-response curve (AID 651878); format: functional
[2] = inhibitors of PGC1a acetylation in cells, dose response, cell-based, cherry-picked samples (AID 720514); format: functional;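 note: potency may reflect raised or lowered acetylation signal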
[3] = P. falciparum Dd2 growth inhibitors, dose response, SYBR Green, cherry-picked samples (AID 1159567); format: functional, cell-based
[4] = HepG2 cell cytotoxicity, dose response, cytotoxicity control, cherry-picked samples (AID 1159577); format: functional, cell-based
[5] = HeLa 2N DNA content increase, dose response, cell-based, IC50 (AID 1117349); format: functional
[6] = HeLa 4N DNA content increase, dose response, cell-based, IC50 (AID 1117351); format: functional
Paired box protein Pax-8 = Paired box protein Pax-8 (Homo sapiens, UniProt Q06710); experiment: inhibitors of PAX8-driven TPO luciferase reporter, dose response, RMG-I cells, cherry-pick (AID 687027); format: functional, cell-based;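 note: luciferase reporter driven by Pax8 target thyroperoxidase promoter measured by SteadyGlo luminescence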
[7] = IGROV1 ovarian cancer cell cytotoxicity, dose response, PAX8 inhibitor project, plate reader, dry powder samples (AID 743043); format: functional, cell-based; settings: IGROV-1
[8] = P. falciparum Dd2 blood-stage growth inhibition, dose response, SYBR Green fluorescence, erythrocytes, dry powder, set 2 (AID 1159574); format: functional, cell-based
[9] = HEp-2 cell cytotoxicity, dose response, cytotoxicity control for RSV inhibitor project, HTS (AID 2410); format: functional; settings: human respiratory syncytial virus
Bcl-2-related protein A1 [10] = target: T2, Bcl-2-related protein A1 (Mus musculus, UniProt Q07440); experiment: Bfl-1 inhibitors blocking BH3 peptide binding, confirmation, biochemical, TR-FRET, mouse Bfl-1 (AID 621);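 note: TR-FRET binding of GST-Bfl-1 to FITC-labelled Bid peptide via terbium antibody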
T2 sequence (Q07440 whole entry): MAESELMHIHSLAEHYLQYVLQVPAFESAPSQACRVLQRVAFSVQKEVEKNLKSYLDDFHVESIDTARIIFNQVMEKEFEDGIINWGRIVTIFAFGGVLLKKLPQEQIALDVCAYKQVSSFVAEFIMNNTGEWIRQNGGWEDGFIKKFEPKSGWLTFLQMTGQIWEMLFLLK

Bcl-2-related protein A1 [11] = target: T2, Bcl-2-related protein A1; experiment: Bfl-1 binding inhibitors, SAR follow-up, biochemical, fluorescence polarization (AID 1070)
Heat shock protein HSP90 = Heat shock protein HSP90 (Homo sapiens, UniProt P07900+P08238); experiment: tumor Hsp90 inhibitor potency, dose response (AID 712); format: functional
[12] = target: Protein-tyrosine kinase 2-beta (Homo sapiens, UniProt Q14289);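 note: potency of inhibitors of PYK2 kinase phosphorylation of poly-GT substrate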
[13] = target: T3, Voltage-gated inwardly rectifying potassium channel KCNH2 (Homo sapiens, UniProt Q12809); settings: Potency;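 note: confirmatory quantitative high-throughput screen measuring inhibition of hERG channel activity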
[14] = test system: Streptococcus sp. 'group A'; experiment: growth inhibition of control SK(-) GAS strain, dose response, counter-screen for streptokinase expression inhibitor project, luminescence, kanamycin, BacTiterGlo, confirmation (AID 1900); format: functional, organism-based
Streptokinase A = target: T4, Streptokinase A (Streptococcus pyogenes serotype M1, UniProt P10520); experiment: S. pyogenes streptokinase expression inhibitors, potency, dose response, plasminogen activation absorbance, OD405 (AID 1914); format: functional, Streptococcus pyogenes M1 GAS;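 note: secreted streptokinase activity via plasminogen activation per viability signal from cell pellet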
T4 sequence (P10520 whole entry): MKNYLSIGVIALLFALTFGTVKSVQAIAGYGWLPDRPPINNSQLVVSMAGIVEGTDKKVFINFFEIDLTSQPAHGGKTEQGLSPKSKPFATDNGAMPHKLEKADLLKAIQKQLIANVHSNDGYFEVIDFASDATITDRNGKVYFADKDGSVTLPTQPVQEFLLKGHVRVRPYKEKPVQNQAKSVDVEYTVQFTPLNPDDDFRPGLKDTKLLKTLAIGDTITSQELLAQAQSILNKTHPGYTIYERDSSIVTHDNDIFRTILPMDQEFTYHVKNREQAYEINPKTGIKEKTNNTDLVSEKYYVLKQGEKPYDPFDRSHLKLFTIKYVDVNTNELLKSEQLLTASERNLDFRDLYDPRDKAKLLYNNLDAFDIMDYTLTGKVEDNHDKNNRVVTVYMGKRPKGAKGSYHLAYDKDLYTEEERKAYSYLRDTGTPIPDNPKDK

Ephrin type-A receptor 4 = Ephrin type-A receptor 4 (Mus musculus, UniProt Q03137); experiment: inhibitors of EphA4 binding to KYL peptide, primary screen, biochemical, colorimetric, mouse EphA4 (AID 689); format: functional
Streptococcus = experiment: Group A Streptococcus viability loss, dose response, counter-screen for streptokinase expression inhibitor project, luminescence, BacTiterGlo (AID 1915); format: functional, organism-based;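 note: potency for reduction of bacterial viability or growth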
[15] = Luminescence-based cell-based high throughput dose response assay to identify activators of the DAF-12 from the parasite S. stercoralis (ssDAF-12).; format: functional
[16] = target: T5, Oxysterols receptor LXR-beta (Homo sapiens, UniProt P55055); experiment: LXR agonists, Gal4 luciferase reporter, dose response, counter-screen for ssDAF-12 agonist project, cell-based, luminescence, HEK293, S. stercoralis campaign (AID 720737); format: functional; settings: read-out: IC50 (the source's name)
T5 sequence (P55055 whole entry): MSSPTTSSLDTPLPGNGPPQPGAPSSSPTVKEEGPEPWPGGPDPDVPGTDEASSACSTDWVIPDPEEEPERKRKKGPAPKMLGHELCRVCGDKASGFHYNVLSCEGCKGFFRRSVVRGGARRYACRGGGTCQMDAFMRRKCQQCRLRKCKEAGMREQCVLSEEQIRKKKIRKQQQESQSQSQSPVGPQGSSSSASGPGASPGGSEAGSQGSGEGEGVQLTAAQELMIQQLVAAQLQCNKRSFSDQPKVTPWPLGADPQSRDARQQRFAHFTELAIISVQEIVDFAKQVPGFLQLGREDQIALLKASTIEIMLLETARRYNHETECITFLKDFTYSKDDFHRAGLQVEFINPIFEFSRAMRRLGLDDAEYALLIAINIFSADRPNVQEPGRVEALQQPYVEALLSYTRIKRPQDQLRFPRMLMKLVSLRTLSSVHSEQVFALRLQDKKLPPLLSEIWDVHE

BJ [17] = experiment: cytotoxicity toward BJ-TERT fibroblasts, dose response, cell-based, RAS-independent, luminescence (AID 1933); format: functional; settings: Homo sapiens
BJ [18] = experiment: cells; format: functional, cell-based; settings: Homo sapiens
BJ [19] = experiment: cytotoxicity toward BJ-TERT-LT-ST fibroblasts, dose response, cell-based, RAS-independent, luminescence (AID 1935); format: functional; settings: Homo sapiens;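 note: BJ fibroblasts immortalized with TERT plus LT and ST oncogenes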
[20] = cytotoxicity toward DRD oncogenic fibroblasts, dose response, cell-based, non-viral oncogenic, luminescence (AID 1934); format: functional; settings: Homo sapiens
[21] = target: Glucose-6-phosphate 1-dehydrogenase (Homo sapiens, UniProt P11413); experiment: human G6PD enzyme inhibitors, dose response, selectivity assay for P. falciparum G6PD inhibitor project, biochemical, fluorescence (AID 504792); format: functional
Nonstructural protein 1 = Nonstructural protein 1 (Influenza A virus, UniProt Q194T2); format: functional, Influenza A virus (A/California/07/2009(H1N1))
[22] = target: T6, Probable nicotinate-nucleotide adenylyltransferase (Staphylococcus aureus (strain N315), UniProt P65502); format: functional, Staphylococcus aureus subsp. aureus N315;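 for IC50 Mean: confirmatory dose-response retesting of NadD inhibitor hits first found in an ultra-high-throughput screen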
[23] = target: T6, Probable nicotinate-nucleotide adenylyltransferase; format: functional, Staphylococcus aureus subsp. aureus N315; settings: read-out: IC50_Mean
Protein Tat = Protein Tat (Human immunodeficiency virus type 1 group M subtype B (isolate HXB2)(HIV-1), UniProt P04608); format: functional;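 note: tat binding to TAR RNA read out by fluorescence polarization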
[24] = THP-1 cell cytotoxicity, dose response, cytotoxicity control for Vif-APOBEC3G degradation inhibitor project, THP-1 cells (AID 1117359); format: functional; settings: Human immunodeficiency virus 1, THP-1
[25] = target: Glutathione-S-transferase (Schistosoma japonicum, UniProt Q26513); experiment: biotin-GST/anti-GST TR-FRET signal inhibitors, dose response, artefact control for Vif-APOBEC3G degradation inhibitor project, biochemical (AID 1117362); format: functional
Vero [26] = experiment: host cell cytotoxicity of antiviral hits, dose response, cytotoxicity control for West Nile virus antiviral project, secondary assay (AID 1650); format: functional; settings: Chlorocebus sabaeus
Vero [27] = experiment: West Nile virus antiviral activity, cell-based, CPE readout (AID 1621); format: functional; settings: Chlorocebus sabaeus
[28] = target: G-protein coupled receptor 183 (Homo sapiens, UniProt P32249); experiment: SAR confirmation of small molecule antagonists of the EBI2 receptor via a luminescent beta-arrestin assa.; format: functional
[29] = target: T3, Voltage-gated inwardly rectifying potassium channel KCNH2; experiment: hERG protection from proarrhythmic block, potency, dose response, cell-based, thallium flux (AID 2121); format: ADME
[30] = target: Sphingosine 1-phosphate receptor 2 (Homo sapiens, UniProt O95136); experiment: Dose Response Cell Based Assay for Agonists of the S1P2 Receptor. [Related pubchem assays: 729, 736, 843 ]; format: functional
Chain of Sphingosine 1-phosphate receptor 2 (O95136 whole entry): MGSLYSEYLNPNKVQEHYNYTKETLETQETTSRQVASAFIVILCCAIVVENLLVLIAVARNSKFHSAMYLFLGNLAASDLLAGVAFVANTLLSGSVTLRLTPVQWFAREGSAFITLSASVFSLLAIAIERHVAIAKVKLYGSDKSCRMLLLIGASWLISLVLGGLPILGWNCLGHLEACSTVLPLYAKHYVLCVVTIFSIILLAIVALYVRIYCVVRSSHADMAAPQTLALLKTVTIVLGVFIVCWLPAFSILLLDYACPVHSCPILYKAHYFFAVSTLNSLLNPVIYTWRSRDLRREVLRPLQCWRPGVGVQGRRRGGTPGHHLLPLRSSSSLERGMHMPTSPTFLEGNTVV

T3 sequence (Q12809 whole entry): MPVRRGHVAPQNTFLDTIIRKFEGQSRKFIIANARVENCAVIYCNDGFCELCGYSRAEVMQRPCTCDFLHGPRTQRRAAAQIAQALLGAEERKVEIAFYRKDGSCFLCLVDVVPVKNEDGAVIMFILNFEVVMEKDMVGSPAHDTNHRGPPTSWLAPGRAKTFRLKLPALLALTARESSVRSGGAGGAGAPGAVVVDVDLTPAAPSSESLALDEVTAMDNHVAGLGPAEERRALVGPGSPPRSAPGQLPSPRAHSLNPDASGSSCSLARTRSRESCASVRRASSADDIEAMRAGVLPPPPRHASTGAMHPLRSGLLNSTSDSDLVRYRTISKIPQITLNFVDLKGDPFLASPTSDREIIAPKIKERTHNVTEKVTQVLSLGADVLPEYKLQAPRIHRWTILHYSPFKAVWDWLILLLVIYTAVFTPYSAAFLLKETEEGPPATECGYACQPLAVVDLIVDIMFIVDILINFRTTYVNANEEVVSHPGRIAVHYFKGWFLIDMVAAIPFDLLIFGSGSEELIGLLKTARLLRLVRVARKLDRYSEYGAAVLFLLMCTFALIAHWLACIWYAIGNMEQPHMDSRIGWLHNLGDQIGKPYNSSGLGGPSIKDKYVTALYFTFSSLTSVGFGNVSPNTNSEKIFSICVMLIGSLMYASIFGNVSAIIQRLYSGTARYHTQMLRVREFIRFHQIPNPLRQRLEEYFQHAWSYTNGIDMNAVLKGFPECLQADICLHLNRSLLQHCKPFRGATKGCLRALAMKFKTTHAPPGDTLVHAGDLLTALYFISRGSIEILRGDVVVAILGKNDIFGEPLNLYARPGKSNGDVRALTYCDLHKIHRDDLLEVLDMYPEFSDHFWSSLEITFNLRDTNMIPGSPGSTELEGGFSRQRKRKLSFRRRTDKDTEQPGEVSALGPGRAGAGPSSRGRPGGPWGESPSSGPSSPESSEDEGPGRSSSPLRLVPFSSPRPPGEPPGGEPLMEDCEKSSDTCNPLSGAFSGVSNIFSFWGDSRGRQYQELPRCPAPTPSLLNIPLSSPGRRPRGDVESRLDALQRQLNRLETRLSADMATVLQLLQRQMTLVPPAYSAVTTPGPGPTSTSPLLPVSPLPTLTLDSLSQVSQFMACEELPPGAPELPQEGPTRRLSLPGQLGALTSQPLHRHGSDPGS
T6 sequence (P65502 whole entry): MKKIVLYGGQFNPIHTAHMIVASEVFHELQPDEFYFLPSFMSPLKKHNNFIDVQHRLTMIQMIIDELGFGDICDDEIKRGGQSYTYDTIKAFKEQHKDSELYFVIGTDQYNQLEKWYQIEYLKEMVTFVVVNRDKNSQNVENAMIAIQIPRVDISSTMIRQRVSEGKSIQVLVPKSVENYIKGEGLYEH
Chain of Paired box protein Pax-8 (Q06710 whole entry): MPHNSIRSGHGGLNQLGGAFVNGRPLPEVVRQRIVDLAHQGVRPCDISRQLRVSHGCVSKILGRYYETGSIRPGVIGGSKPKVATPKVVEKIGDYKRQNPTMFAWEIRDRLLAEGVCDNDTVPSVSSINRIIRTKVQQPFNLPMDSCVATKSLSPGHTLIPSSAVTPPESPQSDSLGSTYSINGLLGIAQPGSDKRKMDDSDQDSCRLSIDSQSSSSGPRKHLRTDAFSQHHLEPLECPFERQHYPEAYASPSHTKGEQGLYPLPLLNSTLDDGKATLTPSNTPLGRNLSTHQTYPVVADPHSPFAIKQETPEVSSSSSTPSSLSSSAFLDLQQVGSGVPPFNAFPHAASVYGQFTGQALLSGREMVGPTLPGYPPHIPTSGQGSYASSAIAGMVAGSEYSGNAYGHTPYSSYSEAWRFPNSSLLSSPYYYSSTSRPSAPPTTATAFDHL
Chain of Nonstructural protein 1 (Q194T2 whole entry): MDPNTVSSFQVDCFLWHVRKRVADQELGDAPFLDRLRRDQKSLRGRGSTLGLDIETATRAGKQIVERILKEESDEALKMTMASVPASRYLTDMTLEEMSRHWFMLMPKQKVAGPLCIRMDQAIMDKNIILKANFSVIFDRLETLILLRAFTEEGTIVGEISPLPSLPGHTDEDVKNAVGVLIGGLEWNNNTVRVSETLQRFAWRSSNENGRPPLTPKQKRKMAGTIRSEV
Chain of Glutathione-S-transferase (Q26513 whole entry): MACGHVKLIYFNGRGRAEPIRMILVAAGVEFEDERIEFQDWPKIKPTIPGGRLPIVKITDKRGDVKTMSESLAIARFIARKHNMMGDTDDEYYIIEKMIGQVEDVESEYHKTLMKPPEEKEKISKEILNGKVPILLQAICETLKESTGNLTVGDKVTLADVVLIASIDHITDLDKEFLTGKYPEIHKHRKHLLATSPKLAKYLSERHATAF
Chain of G-protein coupled receptor 183 (P32249 whole entry): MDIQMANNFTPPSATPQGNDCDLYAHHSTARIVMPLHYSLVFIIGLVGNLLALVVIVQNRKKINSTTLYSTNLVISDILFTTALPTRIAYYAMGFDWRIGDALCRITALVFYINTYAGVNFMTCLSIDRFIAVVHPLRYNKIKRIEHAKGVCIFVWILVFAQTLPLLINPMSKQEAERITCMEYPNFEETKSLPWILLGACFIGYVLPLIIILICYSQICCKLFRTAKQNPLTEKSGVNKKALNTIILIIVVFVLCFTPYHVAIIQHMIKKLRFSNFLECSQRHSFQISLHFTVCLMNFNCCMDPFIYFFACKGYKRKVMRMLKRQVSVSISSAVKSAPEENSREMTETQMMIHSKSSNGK
Chain of Muscarinic acetylcholine receptor M5 (P08912 whole entry): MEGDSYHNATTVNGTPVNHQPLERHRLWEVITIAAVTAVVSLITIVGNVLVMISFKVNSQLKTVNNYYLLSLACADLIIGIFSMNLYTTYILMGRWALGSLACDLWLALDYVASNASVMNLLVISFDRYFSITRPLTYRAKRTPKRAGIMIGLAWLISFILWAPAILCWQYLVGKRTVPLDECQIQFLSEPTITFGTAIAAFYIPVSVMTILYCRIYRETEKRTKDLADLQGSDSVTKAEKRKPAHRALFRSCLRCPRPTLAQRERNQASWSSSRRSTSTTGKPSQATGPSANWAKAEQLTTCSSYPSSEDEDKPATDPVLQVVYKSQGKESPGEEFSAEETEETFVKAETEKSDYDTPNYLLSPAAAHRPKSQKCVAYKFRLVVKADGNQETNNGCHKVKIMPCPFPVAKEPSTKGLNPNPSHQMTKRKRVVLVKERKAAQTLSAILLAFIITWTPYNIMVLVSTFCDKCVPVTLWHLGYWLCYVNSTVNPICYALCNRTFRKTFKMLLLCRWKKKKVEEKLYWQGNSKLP
Chain of Glucose-6-phosphate 1-dehydrogenase (P11413 whole entry): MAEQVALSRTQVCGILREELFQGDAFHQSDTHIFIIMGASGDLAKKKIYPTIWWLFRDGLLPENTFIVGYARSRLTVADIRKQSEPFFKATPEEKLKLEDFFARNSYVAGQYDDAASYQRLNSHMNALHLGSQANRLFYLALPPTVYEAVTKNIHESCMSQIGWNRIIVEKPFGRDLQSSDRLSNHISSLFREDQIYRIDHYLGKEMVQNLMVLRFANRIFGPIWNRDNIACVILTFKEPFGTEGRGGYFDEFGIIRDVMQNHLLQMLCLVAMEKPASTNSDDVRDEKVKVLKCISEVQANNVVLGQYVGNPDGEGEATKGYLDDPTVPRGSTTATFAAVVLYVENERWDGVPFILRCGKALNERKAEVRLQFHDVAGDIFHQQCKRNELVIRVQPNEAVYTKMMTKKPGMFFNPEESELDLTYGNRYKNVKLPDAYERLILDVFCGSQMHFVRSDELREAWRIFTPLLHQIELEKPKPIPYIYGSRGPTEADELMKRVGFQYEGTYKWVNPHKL
Chain of Protein Tat (P04608 whole entry): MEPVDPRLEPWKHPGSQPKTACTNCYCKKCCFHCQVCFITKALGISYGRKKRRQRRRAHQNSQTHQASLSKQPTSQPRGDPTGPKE

CN1c2ccccc2Sc2cc(NC(=O)c3ccc(C(=O)c4ccccc4)cc3)ccc21
IC50 (NADPH oxidase 1): > 50 µM (not active)

Cc1ccc(OCCN2C(=O)C(=O)c3cc(OC(F)(F)F)ccc32)cc1
EC50 [1]: 0.52 µM (active)

OC[C@H]1[C@H](c2ccc(C#CC3CCCC3)cc2)[C@@H]2CN(CCC(F)(F)F)CCCCN12
AC50 [2]: 16.8 µM (active)
AC50 [3]: 0.848 µM (active)
AC50 [4]: 10.4 µM (active)

Cc1cc(CC(C)CC(C)(C)C)n(O)c(=O)c1 (centres undefined) [PIROCTONE]
IC50 [5]: > 10 µM (inactive)
IC50 [6]: > 10 µM (inactive)

COc1ccc(NC(=O)N2CCCCN3[C@H](CO)[C@H](c4ccc(C#Cc5ccccc5)cc4)[C@H]3C2)cc1
AC50 (Paired box protein Pax-8): 23.2 µM (active)
AC50 [7]: 46.7 µM (active)
AC50 [8]: 3.22 µM (active)

COc1ccc2nc(O)c(-c3nnn(-c4ccc(Cl)c(Cl)c4)n3)cc2c1
CC50 [9]: > 50 µM (active)
IC50 (Bcl-2-related protein A1 [10]): > 100 µM (not active)
IC50 (Bcl-2-related protein A1 [11]): > 100 µM (not active)

C[C@H]1CCCC(=O)CCC/C=C/c2cc(O)cc(O)c2C(=O)O1 [ZEARALENONE]
IC50 (Heat shock protein HSP90): 2.402 µM
IC50 [12]: 6.92 µM (active)
AC50 [13]: 39.8 µM (inconclusive) and 56.2 µM (inconclusive)

CCC(C)COC(=O)C(C#N)c1nc2ccccc2nc1N1CCCCC1 (centres undefined)
EC50 [14]: 41.9 µM (active)
EC50 (Streptokinase A): > 150 µM (not active)
IC50 (Ephrin type-A receptor 4): 17.5 µM (active)
EC50 (Streptococcus): 150 µM (active)

NC(=O)c1ccccc1NC(=O)c1ccc2ccccc2c1
IC50 [15]: > 67.6 µM (inactive)
EC50 [16]: > 67.6 µM (inactive)

CCN1/C(=C/C=C/C=C/C=C/c2sc3ccccc3[n+]2CC)Sc2ccccc21
EC50 (BJ [17]): 3.21 µM (active)
EC50 (BJ [18]): 17.8 µM (active)
EC50 (BJ [19]): 11.8 µM (inconclusive)
EC50 [20]: 10.6 µM (active)
IC50 [21]: > 80 µM (inactive)
IC50 (Nonstructural protein 1): 5.73 µM (active)
IC50 [22]: 19.8 µM (active)
IC50 [23]: 27 µM (active)
IC50 (Protein Tat): > 100 µM (active)
CC50 [24]: 1.26 µM (active)
IC50 [25]: 3.88 µM (active)

CCN(CC)S(=O)(=O)c1ccc2nc(O)c3ccccc3c2c1
CC50 (Vero [26]): 38.9 µM (active)
IC50 (Vero [27]): 45.5 µM (active)

CC(C)(C)c1ccc(CN2CCN(C(=O)/C=C/c3ccc(Br)cc3)CC2)cc1
IC50 [28]: 0.00936 µM (active)

CCOC(=O)c1sc2nc(Cc3ccc(Cl)cc3)[nH]c(=S)c2c1C
EC50 (Streptokinase A): > 150 µM (not active)
EC50 [29]: 0.92 µM (active)

Cc1ccc(C2CC(=O)c3cnc(N4CCc5ccccc5C4)nc3C2)cc1 (centres undefined)
EC50 [30]: > 50 µM (not active)
